Read-outs that look alike come from different tables or passages of the source.
Columns and labels:
[1] = system: glucoamylase from Rhizopus sp.; test: effect of pre-incubation of Mn^++ with enzyme or starch on raw corn starch conversion; type: biochemical; details: for % conversion of the starch substrate: reaction 37° C., pH 5.3
Experimental: The glucoamylase from Rhizopus sp. Or raw corn starch substrate were pre-incubated in a sodium acetate buffer, pH 5.3, with 1.0 mM Mn^++ for 0, 20, 40, or 60 min at 22° C. The enzyme pre-incubation solutions were then combined with 15 mg raw corn starch to provide a reaction mixture that was incubated at 37° C. for 5 minutes. The starch pre-incubation solutions were combined with an enzyme solution containing the glucoamylase from Rhizopus sp and buffer to provide a reaction mixture that was incubated at 37° C. for 5 minutes or 10 minutes.

[2] = target: T1, α-amylase from porcine pancreas (Sus scrofa, UniProt P00690); test: hydrolysis of cooked dent corn starch; type: biochemical; details: cooked dent corn starch 0.5%, pH 5.2, 37° C., 10 min
T1 construct: the α-amylase from porcine pancreas; from tissue; host or cells: porcine pancreas
T1 sequence (P00690 16-511): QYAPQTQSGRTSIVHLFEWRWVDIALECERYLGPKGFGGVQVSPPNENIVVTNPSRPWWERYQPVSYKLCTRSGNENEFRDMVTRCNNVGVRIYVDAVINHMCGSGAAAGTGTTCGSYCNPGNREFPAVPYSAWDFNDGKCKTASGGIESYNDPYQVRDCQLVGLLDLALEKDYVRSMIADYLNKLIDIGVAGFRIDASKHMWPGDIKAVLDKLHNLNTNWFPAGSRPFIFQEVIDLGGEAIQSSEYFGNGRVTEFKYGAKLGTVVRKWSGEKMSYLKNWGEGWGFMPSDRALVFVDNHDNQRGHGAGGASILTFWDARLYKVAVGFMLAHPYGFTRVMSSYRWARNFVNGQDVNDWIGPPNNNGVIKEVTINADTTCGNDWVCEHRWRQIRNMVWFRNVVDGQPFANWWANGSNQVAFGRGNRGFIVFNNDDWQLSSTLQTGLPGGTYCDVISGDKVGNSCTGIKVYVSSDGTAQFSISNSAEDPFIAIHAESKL
Experimental: (§1) The separate reaction mixtures were incubated at 37° C. for 10 minutes. The control reaction mixtures contained enzyme, buffer, and starch but no manganese ion. The starch hydrolysis reaction was stopped by combining the reaction mixture with a solution containing DNSA and heating for 30 min at 85° C. The absorbance of the control and test samples was measured at 562 nm to monitor the amount of reducing sugar in each sample.

[3] = target: α-amylase from Aspergillus oryzae (Aspergillus oryzae, UniProt P0C1B3); test: hydrolysis of cooked dent corn starch; type: biochemical; details: cooked dent corn starch 0.5%, pH 5.2, 37° C., 10 min
Experimental: as §1

[4] = target: α-amylase from Bacillus licheniformis (Bacillus licheniformis, UniProt P06278); test: hydrolysis of cooked dent corn starch; type: biochemical; details: cooked dent corn starch 0.5%, pH 5.2, 37° C., 10 min
Experimental: as §1

[5] = target: glucoamylase from Aspergillus Niger (Aspergillus niger, UniProt P69328); details: for Relative Activity: washed 5 times before enzyme, pH 5.3, 37° C., 20 min
Experimental: Thereafter 40 μl of the buffer and metal solution was added to 15 mg raw corn starch and the resulting mixture was pre-incubated at 20° C. for 20 minutes. The starch mixture was washed 5 times with excess buffer, followed by centrifugation, and removal of the supernatant. Then an enzyme solution containing buffer and the glucoamylase from Aspergillus niger was added to the washed starch and the reaction mixture incubated at 37° C. for 20 minutes. The control reaction mixture contained substrate, enzyme, and buffer but no manganese ion. The starch hydrolysis reaction was stopped by combining the reaction mixture with a solution containing DNSA and heating for 30 min at 85° C. The absorbance of the control and test samples was measured at 562 nm to monitor the amount of reducing sugar in each sample.

Sequence of α-amylase from Bacillus licheniformis (P06278 30-512): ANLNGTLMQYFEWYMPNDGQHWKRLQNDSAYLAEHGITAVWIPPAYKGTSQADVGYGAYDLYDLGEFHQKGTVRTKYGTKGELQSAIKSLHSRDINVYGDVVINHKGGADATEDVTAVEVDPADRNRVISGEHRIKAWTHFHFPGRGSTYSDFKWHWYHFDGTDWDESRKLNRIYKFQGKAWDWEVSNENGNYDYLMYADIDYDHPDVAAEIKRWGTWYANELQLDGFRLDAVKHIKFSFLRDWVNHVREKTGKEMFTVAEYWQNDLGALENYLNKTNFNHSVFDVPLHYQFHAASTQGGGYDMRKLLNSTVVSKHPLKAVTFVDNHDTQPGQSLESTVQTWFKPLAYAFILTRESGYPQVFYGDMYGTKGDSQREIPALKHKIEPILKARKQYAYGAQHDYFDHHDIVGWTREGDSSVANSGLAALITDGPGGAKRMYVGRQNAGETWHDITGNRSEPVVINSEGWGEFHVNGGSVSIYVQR
Sequence of glucoamylase from Aspergillus Niger (P69328 25-640): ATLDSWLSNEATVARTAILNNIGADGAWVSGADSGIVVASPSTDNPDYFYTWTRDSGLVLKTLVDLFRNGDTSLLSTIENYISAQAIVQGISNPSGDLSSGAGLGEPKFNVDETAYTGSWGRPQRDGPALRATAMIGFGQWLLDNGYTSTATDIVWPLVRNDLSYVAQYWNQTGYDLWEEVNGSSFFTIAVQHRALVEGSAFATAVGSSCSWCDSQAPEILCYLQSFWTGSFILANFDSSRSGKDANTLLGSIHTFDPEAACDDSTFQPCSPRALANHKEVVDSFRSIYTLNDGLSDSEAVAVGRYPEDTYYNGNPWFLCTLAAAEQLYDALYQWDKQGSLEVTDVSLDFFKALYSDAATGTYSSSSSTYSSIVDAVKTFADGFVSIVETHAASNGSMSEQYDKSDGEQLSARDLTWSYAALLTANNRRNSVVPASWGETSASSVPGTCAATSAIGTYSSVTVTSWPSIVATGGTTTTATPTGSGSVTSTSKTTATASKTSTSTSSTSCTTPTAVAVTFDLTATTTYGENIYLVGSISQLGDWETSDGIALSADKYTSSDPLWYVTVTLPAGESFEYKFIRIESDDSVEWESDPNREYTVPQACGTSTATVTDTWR

In the case of `[Mn+2]` [Mn^++, manganese ions], the “% conversion of the starch substrate” value ([1]; 1.0 mM Mn^++ pre-incubated with glucoamylase 0 min at 22° C., 5 min, raw corn starch) is reported as 0.42%, the “% conversion of the starch substrate” value ([1]; 1.0 mM Mn^++ pre-incubated with glucoamylase 20 min at 22° C., 5 min, raw corn starch) is reported as 0.35% and the “% conversion of the starch substrate” value ([1]; 1.0 mM Mn^++ pre-incubated with glucoamylase 40 min at 22° C., 5 min, raw corn starch) is reported as 0.38%. For the same molecule, the “% conversion of the starch substrate” value ([1]; 1.0 mM Mn^++ pre-incubated with glucoamylase 60 min at 22° C., 5 min, raw corn starch) was 0.38%, the “% conversion of the starch substrate” value ([1]; 1.0 mM Mn^++ pre-incubated with raw corn starch 0 min at 22° C., 5 min) was 0.51% and the “% conversion of the starch substrate” value ([1]; 1.0 mM Mn^++ pre-incubated with raw corn starch 0 min at 22° C., 10 min) was 0.73%. For the same molecule, the “% conversion of the starch substrate” value ([1]; 1.0 mM Mn^++ pre-incubated with raw corn starch 20 min at 22° C., 5 min) was 0.48%, the “% conversion of the starch substrate” value ([1]; 1.0 mM Mn^++ pre-incubated with raw corn starch 20 min at 22° C., 10 min) was 0.79% and the “% conversion of the starch substrate” value ([1]; 1.0 mM Mn^++ pre-incubated with raw corn starch 40 min at 22° C., 5 min) was 0.50%. For the same molecule, the “% conversion of the starch substrate” value ([1]; 1.0 mM Mn^++ pre-incubated with raw corn starch 40 min at 22° C., 10 min) was 0.81%, the “% conversion of the starch substrate” value ([1]; 1.0 mM Mn^++ pre-incubated with raw corn starch 60 min at 22° C., 5 min) was 0.58% and the “% conversion of the starch substrate” value ([1]; 1.0 mM Mn^++ pre-incubated with raw corn starch 60 min at 22° C., 10 min) was 0.80%. The “effect of pre-incubation on activation by Mn^++ (in words)” value ([1]; pre-incubation of Mn^++ with enzyme or with starch, 0-60 min) was “does not significantly influence the activation effect”, the “Relative Activity” value ([2]; 0.01 mM Mn^++) was 114.5% and the “Relative Activity” value ([2]; 0.1 mM Mn^++) was 132.4%. For the same molecule, the “Relative Activity” value ([2]; 1 mM Mn^++) was 144.2%, the “Relative Activity” value ([2]; 10 mM Mn^++) was 177.7% and the “Relative Activity” value ([3]; 0.01 mM Mn^++) was 126.9%. For the same molecule, the “Relative Activity” value ([3]; 0.1 mM Mn^++) was 131.2%, the “Relative Activity” value ([3]; 1 mM Mn^++) was 135.2% and the “Relative Activity” value ([4]; 0.1 mM Mn^++) was 124.4%. The “Relative Activity” value ([4]; 1 mM Mn^++) was 128.7%, the “Relative Activity” value ([4]; 10 mM Mn^++) was 147.8% and the “Relative Activity” value ([5]; raw corn starch pre-incubated with 0.01 mM Mn^++) was 89.1%. The “Relative Activity” value ([5]; raw corn starch pre-incubated with 0.1 mM Mn^++) was 84.2%, the “Relative Activity” value ([5]; raw corn starch pre-incubated with 1 mM Mn^++) was 95.0% and the “Relative Activity” value ([5]; raw corn starch pre-incubated with 10 mM Mn^++) was 89.1%. For the same molecule, the “cause of Mn^++-induced enhancement (in words)” value ([5]; starch pre-incubated with Mn^++ and washed) was “not caused by the action of Mn^++ on the starch”.

Source: US20080102497A1, “ENZYMATIC HYDROLYSIS OF STARCH” (priority 2006, published 2008)
